{"source": "patent US20110301046A1", "about": "“Methods of Determining Efficacy of Glucocorticoid Treatment of Eosinophilic Esophagitis” (Children's Hospital Medical Center, priority 2008, published 2011)", "key": {"[1]": {"test_system": "eotaxin-3 transcript in TE-7 cells", "assay": "IL-13-induced eotaxin-3 transcript levels in TE-7 cells, real-time PCR", "assay_type": "cell-based", "conditions": "IL-13 100 ng/ml, 24 h", "description": "(§1) FIG. 4 depicts IL-13 induced transcript levels of two representative genes are reversed by FP treatment. TE-7 cells were treated as indicated with IL-13 (100 ng/ml) and/or the indicated dose of FP for 24 h. RNA was isolated and cDNA synthesis was performed. Transcript levels of eotaxin-3 (A) and serpinb4 (B) were determined by real-time PCR analysis and normalized to GAPDH levels. *, p<0.05; **, p<0.01.\n(§2) IL-13 signaling in esophageal epithelial cells is known to have a role in EE pathogenesis by inducing the EE transcriptome. […] When TE-7 cells are treated with IL-13, an increase in eotaxin-3 and serpinb4 transcript levels is observed (FIG. 4A, B)."}, "[2]": {"test_system": "serpinb4 transcript in TE-7 cells", "assay": "IL-13-induced serpinb4 transcript levels in TE-7 cells, real-time PCR", "assay_type": "cell-based", "conditions": "IL-13 100 ng/ml, 24 h", "description": "as §1, §2"}, "eotaxin-3 promoter": {"test_system": "eotaxin-3 promoter", "assay": "Eotaxin-3 promoter luciferase reporter in transfected TE-7 cells, dual luciferase assay", "assay_type": "cell-based", "description": "FIG. 5 depicts increased baseline FKBP51 levels impact glucocorticoid repression of IL-13-induced eotaxin-3 promoter activity. (A) Schematics of constructs used in this study. GRE, glucocorticoid response element. CMV, cytomegalovirus promoter. (B) Cells were transfected with Phrl-TK, pEotaxin-3, and Pcdna3.1 or Pfkbp51. Cells were then treated with IL-13 ([…]) and/or FP (10^−6 M) for 24 h. Protein lysates were then collected, and firefly and Renilla luciferase activity for each sample were quantified by dual luciferase assay (Promega). Eotaxin-3 promoter activity is expressed as the ratio of firefly to Renilla luciferase activity. **, p<0.01; ***, p<0.001.\n(§3) Cells were transfected with Phrl-TK and pEotaxin-3 (A) or pEotaxin-3 3′UTR (B) for 48 h. Cells were then treated with IL-13 (100 ng/ml) and/or FP (10^−6 M) for 24 h. Protein lysates were then collected, and firefly and Renilla luciferase activity for each sample was quantified by dual luciferase assay (Promega). Eotaxin-3 promoter activity is expressed as the ratio of firefly to Renilla luciferase activity. **, p<0.01.\n(§4) The contribution of the promoter and 3′ UTR sequences of eotaxin-3 to the control of its gene expression following IL-13 and FP treatment, was tested using TE-7 cells transiently transfected with a luciferase reporter construct. The cells were transfected with a luciferase reporter construct containing either 800 bp of the eotaxin-3 promoter 5′ of the firefly luciferase gene in the Pg13-Basic vector or a plasmid containing 200 bp of the eotaxin-3 3′ UTR downstream of the firefly luciferase gene in the Pg13-Promoter vector (FIG. 5A). The same cells were co-transfected with a plasmid containing Renilla luciferase under a constitutive promoter (Phrl-TK) that served as a control for transfection efficiency. Part of the observed decrease in IL-13 induced eotaxin-3 Mrna levels following FP treatment can be mediated through modulation of the promoter activity due to the presence of a putative glucocorticoid-responsive element (GRE) in this region (FIG. 5A).\nTo test whether increased FKBP51 levels impacted the FP-mediated decrease in IL-13-induced eotaxin-3 promoter activity, TE-7 cells were transfected with either empty vector (Pcdna3.1) or an expression construction that contained FKBP51 under the control of the CMV promoter (Pfkbp51, FIG. 5A) to simulate high baseline levels of FKBP51. […] However, when cells were transfected with the FKBP51 expression vector, the FP-mediated decrease in IL-13 induced eotaxin-3 promoter activity was abolished (FIG. 5B)."}, "eotaxin-3 3' UTR": {"test_system": "eotaxin-3 3' UTR", "assay": "Eotaxin-3 3' UTR luciferase reporter in transfected TE-7 cells, dual luciferase assay", "assay_type": "cell-based", "conditions": "IL-13 100 ng/ml and/or FP 10^-6 M, 24 h, FIG. 6B", "description": "as §3, §4"}, "FKBP51 transcripts": {"test_system": "FKBP51 transcripts", "assay": "Whole genome microarray analysis of esophageal biopsy samples from EE patients treated with swallowed FP", "assay_type": "in vivo, human", "conditions": "esophageal biopsies", "text": "FIG. 1 depicts the identification of glucocorticoid-regulated genes in EE patients that respond to FP treatment. (A) Analysis of microarray data to identify glucocorticoid-regulated transcripts. RNA from distinct patient populations was subjected to chip analysis using Affymetrix Human Genome U 133 Plus 2.0 GeneChips®. The groups are composed of the following numbers of patients: normal (NL), n=14; EE, n=14; EE, FP responders (EE R), n=13; EE, FP non-responders, n=8. Using the average expression for each patient group, the subset of genes differentially regulated between normal (NL) and EE patients was identified by t-test (p<0.01). The subset of genes differentially regulated between normal patients and EE patients that respond to FP (EE R) was then identified by 2-fold change filter. Subsequently, the subset of genes differentially regulated between NL and EE patients was subtracted from those differentially regulated between NL and EE R. These transcripts were then subjected to ANOVA, p<0.01. […] The average expression level for each patient group (normal, EE, Flovent® (fluticasone propionate) responders, Flovent® non-responders) is expressed as fold-change compared to the normal patients. […] The transcript levels for the indicated gene for each patient population was quantified by real-time PCR and normalized to glyceraldehyde-3-phosphate dehydrogenase (GAPDH) levels. […]"}, "[3]": {"test_system": "FKBP51, KRT7, H19 transcripts", "assay": "Real-time PCR analysis of glucocorticoid-regulated genes in patient esophageal biopsies", "assay_type": "in vivo, human", "text": "FIG. 2 depicts the verification of transcript levels of glucocorticoid-regulated genes by real-time PCR analysis. (A) Microarray data for three glucocorticoid-regulated genes. The average expression level for each patient group (normal, EE, Flovent® (fluticasone propionate) responders, Flovent® non-responders) is expressed as fold-change compared to the normal patients. (B) Real-time PCR analysis for three glucocorticoid-regulated genes. The transcript levels for the indicated gene for each patient population was quantified by real-time PCR and normalized to glyceraldehyde-3-phosphate dehydrogenase (GAPDH) levels. […] The expression pattern of three of the identified candidate genes was validated by real-time PCR analysis."}, "[4]": {"test_system": "FKBP51 transcript in peripheral blood mononuclear cells", "assay": "FKBP51 induction in PBMCs cultured ex vivo, real-time PCR", "assay_type": "cell-based, human", "conditions": "all FP concentrations tested, 24 h, normalized to GAPDH", "description": "(§5) FIG. 3 depicts FKBP51 induction following glucocorticoid treatment. (A) Peripheral blood mononuclear cells (PBMCs) were isolated from a patient blood sample and cultured ex vivo. The cells were treated with the indicated concentration of FP for 24 h. RNA was isolated, cDNA synthesis was performed, and real-time PCR analysis was conducted. FKBP51 transcript levels were normalized to GAPDH levels. (B) Primary esophageal epithelial cells were cultured from the biopsy of an EE patient with active disease. Cells were treated or not with 10^−6 M FP for 24 h. Protein extracts were prepared and subjected to SDS-PAGE and western blot analysis for FKBP51 and actin (left). FKBP51 and actin levels were quantified by densitometry analysis. The ratio of FKBP51 to actin is shown (right). (C) TE-7 cells were treated with the indicated dose of FP for 24 h. Protein extracts were then prepared and subjected to SDS-PAGE and western blot analysis for FKBP51 and actin (top). Densitometry analysis was performed and the fold-change in the ratio of FKBP51 to actin expression is graphed (bottom). (D) TE-7 cells were treated for the indicated amount of time with 10^−7 M FP. RNA was isolated, cDNA synthesis was performed, and real-time PCR analysis to detect FKBP51 and GAPDH transcripts was done (left). […]"}, "[5]": {"test_system": "FKBP51 protein in primary esophageal epithelial cells", "assay": "FKBP51 protein in primary esophageal epithelial cells from an EE patient, western blot", "assay_type": "cell-based, human", "conditions": "10^-6 M FP, 24 h, FKBP51 to actin ratio", "description": "as §5"}, "FKBP51 in TE-7 cells": {"test_system": "FKBP51 in TE-7 cells", "assay": "FKBP51 induction in TE-7 esophageal cell line, western blot and real-time PCR", "assay_type": "cell-based", "description": "FIG. 3 depicts FKBP51 induction following glucocorticoid treatment. (A) Peripheral blood mononuclear cells (PBMCs) were isolated from a patient blood sample and cultured ex vivo. The cells were treated with the indicated concentration of FP for 24 h. RNA was isolated, cDNA synthesis was performed, and real-time PCR analysis was conducted. FKBP51 transcript levels were normalized to GAPDH levels. (B) Primary esophageal epithelial cells were cultured from the biopsy of an EE patient with active disease. Cells were treated or not with 10^−6 M FP for 24 h. Protein extracts were prepared and subjected to SDS-PAGE and western blot analysis for FKBP51 and actin (left). FKBP51 and actin levels were quantified by densitometry analysis. The ratio of FKBP51 to actin is shown (right). (C) TE-7 cells were treated with the indicated dose of FP for 24 h. Protein extracts were then prepared and subjected to SDS-PAGE and western blot analysis for FKBP51 and actin (top). Densitometry analysis was performed and the fold-change in the ratio of FKBP51 to actin expression is graphed (bottom). (D) TE-7 cells were treated for the indicated amount of time with 10^−7 M FP. RNA was isolated, cDNA synthesis was performed, and real-time PCR analysis to detect FKBP51 and GAPDH transcripts was done (left). In a separate experiment, protein extracts were prepared and then subjected to SDS-PAGE and western blot analysis for FKBP51 and actin (right, top). Following densitometry analysis, the fold-change in the ratio of FKBP51 to actin signal was graphed (right, bottom)*, p<0.05; **, p<0.01. To further study the role of FKBP51 in epithelial cells, the TE-7 esophageal cell line was used to understand the expression patterns of FKBP51 following FP treatment. […] The kinetics of FKBP51 Mrna and protein expression were examined following FP treatment. […] Similarly, FKBP51 protein levels in TE-7 cells increased in a time dependent manner, with maximum levels of protein observed by 24 h following treatment."}, "[6]": {"conditions": "average, FIG. 2B, real-time PCR"}}}
{"compound": "IL-13: cytokine used to induce eotaxin-3 and serpinb4 in TE-7 esophageal epithelial cells", "values": [{"measurement": "eotaxin-3 transcript levels on IL-13 treatment", "setting": "[1]; TE-7 cells", "result": "increase"}, {"measurement": "serpinb4 transcript levels on IL-13 treatment", "setting": "[2]; TE-7 cells", "result": "increase"}, {"measurement": "increase in eotaxin-3 promoter activity upon IL-13 treatment", "setting": "eotaxin-3 promoter; empty vector, IL-13 10 ng/ml, 24 h, FIG. 5B", "result": 2, "unit": "fold"}, {"measurement": "modulation of mRNA stability via eotaxin-3 3' UTR sequence", "setting": "eotaxin-3 3' UTR", "result": "did not show any modulation"}]}
{"compound": "CCC(=O)O[C@]1(C(=O)SCF)[C@H](C)C[C@H]2[C@@H]3C[C@H](F)C4=CC(=O)C=C[C@]4(C)[C@@]3(F)[C@@H](O)C[C@@]21C", "note": "[FP, S-fluoromethyl-6α,9-difluoro-11β-hydroxy-16α-methyl-3-oxoandrosta-1,4-diene-17β-carbothioate, 17-propionate]", "values": [{"measurement": "increase in FKBP51 transcripts in FP-responders compared to control and active EE individuals", "setting": "FKBP51 transcripts", "result": 4, "unit": "fold"}, {"measurement": "FKBP51 levels in FP responders compared to normal patients", "setting": "[3]; [6]", "result": 4, "unit": "fold"}, {"measurement": "FKBP51 transcript levels in FP non-responder patients compared to normal patients", "setting": "[3]; [6]", "result": 1.5, "unit": "fold"}, {"measurement": "FKBP51, KRT7 and H19 transcript levels in FP responder patients compared to untreated patients", "setting": "[3]; microarray and real-time PCR", "result": "increased transcript levels"}, {"measurement": "FKBP51 transcript levels in isolated PBMCs", "setting": "[4]", "result": "significant increase"}, {"measurement": "increase in FKBP51 protein in primary esophageal epithelial cells", "setting": "[5]", "result": "approximately 3 fold"}, {"measurement": "FKBP51 transcript levels in TE-7 cells over time", "setting": "FKBP51 in TE-7 cells; 10^-7 M FP, real-time PCR", "result": "increased by 4 h post treatment and were further increased by 8 h, after which no further increase was observed"}, {"measurement": "time of maximum FKBP51 protein levels in TE-7 cells", "setting": "FKBP51 in TE-7 cells; 10^-7 M FP, western blot", "result": "≤ 24", "unit": "h"}, {"measurement": "FKBP51 protein levels in TE-7 cells in response to FP dose", "setting": "FKBP51 in TE-7 cells; various doses of FP, 24 h, western blot", "result": "dose-dependent increase"}, {"measurement": "IL-13 mediated increase in eotaxin-3 transcript levels on concomitant FP treatment", "setting": "[1]; indicated doses of FP", "result": "decreased in a dose-dependent manner"}, {"measurement": "IL-13 mediated increase in serpinb4 transcript levels on concomitant FP treatment", "setting": "[2]; indicated doses of FP", "result": "decreased in a dose-dependent manner"}, {"measurement": "FP-mediated decrease in IL-13 induced eotaxin-3 promoter activity in cells transfected with FKBP51 expression vector", "setting": "eotaxin-3 promoter; FKBP51 expression vector, IL-13 10 ng/ml, FP 10^-6 M, 24 h, FIG. 5B", "result": "abolished"}, {"measurement": "reduction of FP-mediated inhibition of IL-13-induced eotaxin-3 expression by FKBP51 overexpression", "setting": "eotaxin-3 promoter; FKBP51 overexpression in TE-7 cells", "result": 50, "unit": "%"}, {"measurement": "IL-13-induced eotaxin-3 promoter activity upon concomitant FP treatment", "setting": "eotaxin-3 promoter; IL-13 100 ng/ml, FP 10^-6 M, 24 h, FIG. 6A", "result": "decrease"}, {"measurement": "reduction of IL-13-induced eotaxin-3 promoter activity by concomitant FP", "setting": "eotaxin-3 promoter; empty vector, IL-13 10 ng/ml, FP 10^-6 M, 24 h, FIG. 5B", "result": 50, "unit": "%"}, {"measurement": "modulation of mRNA stability via eotaxin-3 3' UTR sequence", "setting": "eotaxin-3 3' UTR", "result": "did not show any modulation"}]}
